Experimental data from PubChem BioAssay AID328 (DTP/NCI, 2004).
Values joined by “and” are separate entries in the source; they are usually repeats but may differ in a detail not shown here. Identical values can stand only once. Inconclusive results and toxic doses are left out.

Test system: BDF1 mice, P388 leukemia ip, median survival T/C
Test: NCI In Vivo Anticancer Drug Screen. Data for tumor model P388 Leukemia (intraperitoneal) in B6D2F1 (BDF1) mice
Conditions: endpoint: median survival time, higher = longer survival
Procedure, shortened: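 Steps: implant the tumour, treat one group with compound and another with vehicle, record survival, then divide treated by control.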

[1] = dose: 50.0 mg/kg/injection, schedule: Q01DX009 (ip), vehicle: saline with Tween-80
[2] = dose: 100.0 mg/kg/injection, schedule: Q01DX009 (ip), vehicle: saline with Tween-80
[3] = dose: 150.0 mg/kg/injection, schedule: Q04DX003 (ip), vehicle: saline
[4] = dose: 200.0 mg/kg/injection, schedule: Q01DX009 (ip), vehicle: saline with Tween-80

`CCOC(=O)CC(C)C(Br)(C(=O)OCC)C(=O)OCC` (stereo not drawn) was tested, and the T/C (dose: 25.0 mg/kg/injection, schedule: Q01DX009 (ip), vehicle: water) was 110 % of control, the T/C (dose: 25.0 mg/kg/injection, schedule: Q04DX003 (ip), vehicle: water) was 108 % of control and the T/C (dose: 50.0 mg/kg/injection, schedule: Q01DX009 (ip), vehicle: water) was 121 % of control. The T/C (dose: 50.0 mg/kg/injection, schedule: Q04DX003 (ip), vehicle: water) was 110 % of control, the T/C (dose: 100.0 mg/kg/injection, schedule: Q01DX009 (ip), vehicle: water) was 114 % of control and the T/C (dose: 100.0 mg/kg/injection, schedule: Q04DX003 (ip), vehicle: water) was 117 % of control. For the same molecule, the T/C (dose: 200.0 mg/kg/injection, schedule: Q04DX003 (ip), vehicle: water) was 106 % of control.
`NC(=S)N/N=C/c1ccc(NC(=O)c2ccccc2C(=O)O)cc1` was tested, and the T/C (dose: 25.0 mg/kg/injection, schedule: Q01DX009 (ip), vehicle: saline with Tween-80) was 95 % of control, the T/C [1] was 87 % of control and the T/C [2] was 100 % of control.
In the case of `CN(CCCl)Cc1ccccc1`, the T/C (dose: 0.04 mg/kg/injection, schedule: Q01DX009 (ip), vehicle: saline) is reported as 95 % of control, the T/C (dose: 0.07 mg/kg/injection, schedule: Q01DX009 (ip), vehicle: saline) is reported as 87 % of control and the T/C (dose: 22.0 mg/kg/injection, schedule: Q04DX003 (ip), vehicle: saline) is reported as 104 % of control. For the same molecule, the T/C (dose: 25.0 mg/kg/injection, schedule: Q04DX003 (ip), vehicle: saline) was 109 % of control, the T/C (dose: 33.0 mg/kg/injection, schedule: Q01DX009 (ip), vehicle: saline sonified) was 116 % of control and the T/C (dose: 35.0 mg/kg/injection, schedule: Q04DX003 (ip), vehicle: saline) was 109 % of control. The T/C (dose: 50.0 mg/kg/injection, schedule: Q01DX009 (ip), vehicle: saline sonified) was 120 % of control, the T/C (dose: 50.0 mg/kg/injection, schedule: Q01DX009 (ip), vehicle: saline) was 210 % of control and the T/C (dose: 75.0 mg/kg/injection, schedule: Q01DX009 (ip), vehicle: saline sonified) was 195 % of control. The T/C (dose: 100.0 mg/kg/injection, schedule: Q01DX009 (ip), vehicle: saline) was 155 % of control and the T/C [3] was 175 % of control.
In the case of `O=C(Nc1ccc([N+](=O)[O-])cc1)Nc1ccc([N+](=O)[O-])c(C(F)(F)F)c1`, the T/C [2] is reported as 87 % of control, the T/C (dose: 110.0 mg/kg/injection, schedule: Q01DX009 (ip), vehicle: Klucel (hydroxypropylcellulose) (HPC)) is reported as 105 % of control and 117 % of control and the T/C (dose: 170.0 mg/kg/injection, schedule: Q01DX009 (ip), vehicle: Klucel (hydroxypropylcellulose) (HPC)) is reported as 121 % of control. The T/C [4] was 95 % of control, the T/C (dose: 225.0 mg/kg/injection, schedule: Q01DX009 (ip), vehicle: Klucel (hydroxypropylcellulose) (HPC)) was 105 % of control and the T/C (dose: 400.0 mg/kg/injection, schedule: Q01DX009 (ip), vehicle: saline with Tween-80) was 100 % of control.
`COc1cc(-c2ccc(O)cc2)c(OC)c(O)c1-c1ccc(O)c(O)c1` was tested, and the T/C (dose: 1.25 mg/kg/injection, schedule: Q01DX009 (ip), vehicle: Klucel (hydroxypropylcellulose) (HPC)) was 97 % of control, the T/C (dose: 2.5 mg/kg/injection, schedule: Q01DX009 (ip), vehicle: Klucel (hydroxypropylcellulose) (HPC)) was 96 % of control and the T/C (dose: 5.0 mg/kg/injection, schedule: Q01DX009 (ip), vehicle: Klucel (hydroxypropylcellulose) (HPC)) was 98 % of control. For the same molecule, the T/C (dose: 10.0 mg/kg/injection, schedule: Q01DX009 (ip), vehicle: Klucel (hydroxypropylcellulose) (HPC)) was 95 % of control, the T/C (dose: 20.0 mg/kg/injection, schedule: Q01DX009 (ip), vehicle: Klucel (hydroxypropylcellulose) (HPC)) was 97 % of control and the T/C (dose: 40.0 mg/kg/injection, schedule: Q01DX009 (ip), vehicle: Klucel (hydroxypropylcellulose) (HPC)) was 97 % of control.
With `NOCc1cccc(C(F)(F)F)c1` the T/C (dose: 75.0 mg/kg/injection, schedule: Q04DX003 (ip), vehicle: saline) was 91 % of control, the T/C [3] was 91 % of control and the T/C (dose: 300.0 mg/kg/injection, schedule: Q04DX003 (ip), vehicle: saline) was 91 % of control.
In the case of `NC(COC(c1ccccc1)(c1ccccc1)c1ccccc1)C(=O)O` (stereo not drawn), the T/C (dose: 50.0 mg/kg/injection, schedule: Q01DX009 (ip), vehicle: Klucel (hydroxypropylcellulose) (HPC)) is reported as 120 % of control, the T/C (dose: 65.0 mg/kg/injection, schedule: Q01DX009 (ip), vehicle: Klucel (hydroxypropylcellulose) (HPC)) is reported as 150 % of control and the T/C (dose: 85.0 mg/kg/injection, schedule: Q04DX003 (ip), vehicle: other) is reported as 120 % of control. For the same molecule, the T/C (dose: 100.0 mg/kg/injection, schedule: Q01DX009 (ip), vehicle: Klucel (hydroxypropylcellulose) (HPC)) was 155 % of control and 160 % of control, the T/C (dose: 100.0 mg/kg/injection, schedule: Q04DX003 (ip), vehicle: saline) was 122 % of control and the T/C (dose: 150.0 mg/kg/injection, schedule: Q01DX009 (ip), vehicle: Klucel (hydroxypropylcellulose) (HPC)) was 205 % of control. For the same molecule, the T/C (dose: 200.0 mg/kg/injection, schedule: Q01DX009 (ip), vehicle: Klucel (hydroxypropylcellulose) (HPC)) was 90 % of control, the T/C (dose: 200.0 mg/kg/injection, schedule: Q04DX003 (ip), vehicle: other) was 150 % of control and the T/C (dose: 300.0 mg/kg/injection, schedule: Q04DX003 (ip), vehicle: other) was 200 % of control.
With `CN1C(=O)NNC(=O)c2ccccc21` the T/C [1] was 106 % of control, the T/C [2] was 100 % of control and the T/C [4] was 97 % of control.
